# The Kinase Knowledgebase extract (Sharma et al. 2016)
# Target: EGFR (human) (UniProt P00533)
# Sequence (P00533 whole entry, looked up): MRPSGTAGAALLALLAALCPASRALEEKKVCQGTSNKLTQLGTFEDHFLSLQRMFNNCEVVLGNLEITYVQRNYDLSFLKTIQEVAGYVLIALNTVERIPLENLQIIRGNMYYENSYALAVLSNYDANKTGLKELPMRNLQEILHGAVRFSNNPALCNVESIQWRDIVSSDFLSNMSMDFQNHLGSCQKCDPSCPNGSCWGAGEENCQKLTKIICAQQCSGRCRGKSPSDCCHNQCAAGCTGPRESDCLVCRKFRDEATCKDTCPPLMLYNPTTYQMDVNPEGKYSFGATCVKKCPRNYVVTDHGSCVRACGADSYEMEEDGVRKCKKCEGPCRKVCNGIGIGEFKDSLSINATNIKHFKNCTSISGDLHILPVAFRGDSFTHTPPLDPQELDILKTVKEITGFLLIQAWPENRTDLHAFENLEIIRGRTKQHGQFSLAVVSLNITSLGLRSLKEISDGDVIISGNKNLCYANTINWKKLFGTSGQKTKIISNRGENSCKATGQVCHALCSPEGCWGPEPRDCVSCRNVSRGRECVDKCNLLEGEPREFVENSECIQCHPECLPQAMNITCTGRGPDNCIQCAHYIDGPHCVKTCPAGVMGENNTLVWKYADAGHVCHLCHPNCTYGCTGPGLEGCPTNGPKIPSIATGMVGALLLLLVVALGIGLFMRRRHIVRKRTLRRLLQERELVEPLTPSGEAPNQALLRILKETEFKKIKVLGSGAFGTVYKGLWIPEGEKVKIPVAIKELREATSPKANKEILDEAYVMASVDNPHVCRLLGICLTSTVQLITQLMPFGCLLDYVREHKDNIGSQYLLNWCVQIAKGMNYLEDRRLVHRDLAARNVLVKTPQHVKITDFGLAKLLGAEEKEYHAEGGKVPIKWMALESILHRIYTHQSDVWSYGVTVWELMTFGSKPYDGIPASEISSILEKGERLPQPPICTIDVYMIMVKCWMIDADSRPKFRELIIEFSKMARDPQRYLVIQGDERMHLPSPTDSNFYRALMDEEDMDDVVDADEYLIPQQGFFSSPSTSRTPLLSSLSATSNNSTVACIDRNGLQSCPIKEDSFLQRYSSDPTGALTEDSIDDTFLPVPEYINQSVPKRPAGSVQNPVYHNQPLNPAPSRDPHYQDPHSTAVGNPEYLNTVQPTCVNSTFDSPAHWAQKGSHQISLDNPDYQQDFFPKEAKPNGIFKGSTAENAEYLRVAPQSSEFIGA
row,Compound,IC50 [nM]
1,C=CC(=O)N1CCC[C@@H](n2nc(-c3ccc(CNS(=O)(=O)c4ccccc4F)cc3)c3c(N)ncnc32)C1,41
2,C=CC(=O)N1CCC[C@@H](n2nc(-c3ccc(CNS(=O)(=O)c4ccc(C)cc4C)cc3)c3c(N)ncnc32)C1,250
3,C=CC(=O)N1CCC[C@@H](n2nc(-c3ccc(CNS(=O)(=O)c4cccc(F)c4)cc3)c3c(N)ncnc32)C1,81.7
4,C=CC(=O)N1CCC[C@@H](n2nc(-c3ccc(CNS(=O)(=O)c4ccc(C)cc4OC)cc3)c3c(N)ncnc32)C1,323
5,C=CC(=O)N1CCC[C@@H](n2nc(-c3ccc(CNS(=O)(=O)c4cccc(OC)c4)cc3)c3c(N)ncnc32)C1,290
6,C=CC(=O)N1CCC[C@@H](n2nc(-c3ccc(CNS(C)(=O)=O)cc3)c3c(N)ncnc32)C1,112
7,C=CC(=O)N1CCC[C@@H](n2nc(-c3ccc(CNS(=O)(=O)CC)cc3)c3c(N)ncnc32)C1,132
8,C=CC(=O)N1CCC[C@@H](n2nc(-c3ccc(CNS(=O)(=O)c4cc(C(F)(F)F)ccc4F)cc3)c3c(N)ncnc32)C1,151
9,C=CC(=O)N1CCC[C@@H](n2nc(-c3ccc(CNS(=O)(=O)c4ccccc4)cc3)c3c(N)ncnc32)C1,265
10,C=CC(=O)N1CCC[C@@H](n2nc(-c3ccc(CNS(=O)(=O)c4cc(F)ccc4OC)cc3)c3c(N)ncnc32)C1,163
11,C=CC(=O)N1CCC[C@@H](n2nc(-c3ccc(CNS(=O)(=O)c4cc(C)ccc4OC)cc3)c3c(N)ncnc32)C1,351
12,C=CC(=O)N1CCC[C@@H](n2nc(-c3ccc(CN(C)S(=O)(=O)c4ccccc4F)cc3)c3c(N)ncnc32)C1,78.8
13,N#CN1CCC[C@@H](n2nc(-c3ccc(CNS(=O)(=O)c4cccc(F)c4)cc3)c3c(N)ncnc32)C1,272
14,C=CC(=O)N1CCC[C@@H](n2nc(-c3ccc(CNS(=O)(=O)c4c(F)cccc4F)cc3)c3c(N)ncnc32)C1,95.7
15,C=CC(=O)N1CCC[C@@H](n2nc(-c3ccc(CNS(=O)(=O)c4ccccc4OC(F)(F)F)cc3)c3c(N)ncnc32)C1,452
16,C=CC(=O)N1CCC[C@@H](n2nc(-c3ccc(CNS(=O)(=O)c4ccc(Cl)cc4)cc3)c3c(N)ncnc32)C1,60.5
17,C=CC(=O)N1CCC[C@@H](n2nc(-c3ccc(CNS(=O)(=O)C4CCCCC4)cc3)c3c(N)ncnc32)C1,45
18,C=CC(=O)N1CCC[C@@H](n2nc(-c3ccc(CNS(=O)(=O)c4ccc(OC)cc4)cc3)c3c(N)ncnc32)C1,129
19,C=CC(=O)N1CCC[C@@H](n2nc(-c3ccc(CNS(=O)(=O)c4ccc(OCC)cc4)cc3)c3c(N)ncnc32)C1,371
20,C=CC(=O)N1CCC[C@@H](n2nc(-c3ccc(CNS(=O)(=O)c4cc(F)cc(C(F)(F)F)c4)cc3)c3c(N)ncnc32)C1,97.7

row,Compound,IC50 [nM]
1,C=CC(=O)N1CCC[C@@H](n2nc(-c3ccc(CNS(=O)(=O)c4cc(F)cc(F)c4)cc3)c3c(N)ncnc32)C1,120
2,N#CN1CCC[C@@H](n2nc(-c3ccc(CNS(=O)(=O)c4cccc(Cl)c4)cc3)c3c(N)ncnc32)C1,572
3,C=CC(=O)N1CCC[C@@H](n2nc(-c3ccc(CNS(=O)(=O)c4ccccc4C)cc3)c3c(N)ncnc32)C1,91.8
4,C=CC(=O)N1CCC[C@@H](n2nc(-c3ccc(CNS(=O)(=O)c4ccc(F)cc4)cc3)c3c(N)ncnc32)C1,363
5,C=CC(=O)N1CCC[C@@H](n2nc(-c3ccc(CNS(=O)(=O)c4cc(Cl)ccc4F)cc3)c3c(N)ncnc32)C1,120
6,C=CC(=O)N1CCC[C@@H](n2nc(-c3ccc(CNS(=O)(=O)c4cccc(Cl)c4)cc3)c3c(N)ncnc32)C1,45.7
7,C=CC(=O)N1CCC[C@@H](n2nc(-c3ccc(CNS(=O)(=O)c4cccc5ccccc45)cc3)c3c(N)ncnc32)C1,58.1
8,C=CC(=O)N1CCC[C@@H](n2nc(-c3ccc(CNS(=O)(=O)c4cc(C)ccc4F)cc3)c3c(N)ncnc32)C1,64.6
9,C=CC(=O)N1CCC[C@@H](n2nc(-c3ccc(CNS(=O)(=O)c4ccc(-c5ccccc5)cc4)cc3)c3c(N)ncnc32)C1,73
10,C=CC(=O)N1CCC[C@@H](n2nc(-c3ccc(CNS(=O)(=O)c4ccc(F)c(C(F)(F)F)c4)cc3)c3c(N)ncnc32)C1,199
11,C=CC(=O)N1CCC[C@@H](n2nc(-c3ccc(CNS(=O)(=O)c4ccccc4C(F)(F)F)cc3)c3c(N)ncnc32)C1,86.3
12,C=CC(=O)N1CCC[C@@H](n2nc(-c3ccc(CNS(=O)(=O)c4ccc(C)cc4)cc3)c3c(N)ncnc32)C1,90.7
13,C=CC(=O)N1CCC[C@@H](n2nc(-c3ccc(CNS(=O)(=O)c4ccccc4Cl)cc3)c3c(N)ncnc32)C1,168
14,C=CC(=O)N1CCC[C@@H](n2nc(-c3ccc(CNS(=O)(=O)c4ccc(C)cc4F)cc3)c3c(N)ncnc32)C1,174
15,C=CC(=O)N1CCC[C@@H](n2nc(-c3ccc(CNS(=O)(=O)c4cc(C)ccc4C)cc3)c3c(N)ncnc32)C1,194
16,C=CC(=O)N1CCC[C@@H](n2nc(-c3ccc(CNS(=O)(=O)c4ccc5c(c4)CCC5)cc3)c3c(N)ncnc32)C1,73.3
17,C=CC(=O)N1CCC[C@@H](n2nc(-c3ccc(CNS(=O)(=O)c4ccc5ccccc5c4)cc3)c3c(N)ncnc32)C1,98.7
18,C=CC(=O)N1CCC[C@@H](n2nc(-c3ccc(CNS(=O)(=O)CCC(F)(F)F)cc3)c3c(N)ncnc32)C1,277
19,C=CC(=O)N1CCC[C@@H](n2nc(-c3ccc(CNS(=O)(=O)c4cccc(C)c4)cc3)c3c(N)ncnc32)C1,86.2
20,C=CC(=O)N1CCC[C@@H](n2nc(-c3ccc(CNS(=O)(=O)c4ccc(F)cc4F)cc3)c3c(N)ncnc32)C1,124
